From US20240398740A1, “THERAPEUTIC COMPOSITION, METHODS, AND USES FOR THE CONTROL OF SEIZURES” (priority 2022, published 2024)
Entries after “also recorded” stand apart in the source; their conditions may differ. Where two headings read alike, the source gives them in different places.

Columns and labels:
bicuculline spiking = experiment: acute bicuculline seizure focus model in nonhuman primates (surface EEG); assay type: in vivo, Macaca nemestrina; conditions: for block of bicuculline spiking by comparator drugs: IV administration (FIG. 13); for effect on bicuculline spiking after oral dose: 10 mg/kg
[1] = diuresis (urine production) in anesthetized, catheterized macaque monkeys
4-AP bursting = 4-AP bursting in primate neocortical seizure model; assay type: in vivo; conditions: Keppra 2×40 mg/kg
ADs and hand-twitching = experiment: stimulation-evoked afterdischarges (ADs) and hand-twitching in primate model; conditions: in vivo
Procedure: Stimulation-evoked […] evoked by a 4 sec train of 60 Hz biphasic pulses at 4-20 mA using a bipolar stimulating electrode (5 mm interelectrode distance) powered by a constant current source (Ojemann Cortical Stimulator, Integra Life Sciences Corporation, NJ, U.S.A.) placed on the sensory cortex, or by passing current between two of the three surface electrodes. The AD threshold was determined by stimulating at the lowest level that reliably triggered AD activity three times in a row and thresholds remained constant throughout recordings. AD activity was reliably elicited on the sensory cortex during the same experiments in which a bicuculline focus was created on the motor cortex. […] The brain is electrically stimulated for 4 seconds at varying current magnitudes until the “after discharge threshold” is determined: the magnitude of stimulation current that is just sufficient to elicit ADs. The stimulation artifacts are shown in the top lefthand trace, denoted by stars (*). The ADs are shown by orange bars. One can see that, in this case, 7 mA was not sufficient for eliciting ADs, but 8 mA reliably generated ADs. […] In this way, changes in the effect of a treatment on this type of electrical stimulation-evoked epileptiform activity can be quantified by measuring changes in the AD-threshold. From Haglund and Hochman, 2007.

epileptiform activity = experiment: primate neocortical seizure model; assay type: in vivo; conditions: Furosemide at 10 mg/kg IV, bumetanide at 2 mg/kg IV
From the text: The primate neocortical seizure model was used here for testing the effects of NKCC antagonists on epileptiform activity. This model and the techniques used to analyze the data was originally developed by Haglund and Hochman for the purpose of studying intrinsic optical signals in the human and primate brain, and how these signals could be used to map spread of seizure activity in the neocortex (Haglund et al. 1993, Haglund and Hochman, 2007). […] The afterdischarge protocol developed for human intraoperative studies as shown in the second figure below was also used in primate studies. As well, the physical properties of the optical signals from the brain generated by epileptiform activity (not shown here) (Haglund and Hochman, 2005, Haglund and Hochman 2007).

[2] = repeated dosing in healthy adult subjects: BUN, creatinine, serum chloride, urine specific gravity as signs of diuresis; assay type: in vivo, humans; conditions: healthy adults, eight capsules of 16 mg every 24 hours, day 1 to day 8
Procedure: Pharmacokinetic (PK) blood samples were collected and analyzed pre-dosing to establish baseline levels. Analysis was also done on day1, day 3, day 4, day 5, day 6, day 7, and day 8 following dosing. The samples were analysed for BUN (blood urea nitrogen), creatinine, serum chloride, and urine specific gravity. Diuresis is indicated by an out of proportion increase in serum BUN compared to creatinine (BUN increase out of proportion to creatinine), a decrease in urine specific gravity, and an increase in serum chloride. […] The grey horizontal lines in FIGS. 28-29 are indicative of an upper and a lower range for accepted normal values. The control-subject (placebo) are indicated with white-and-black dashed lines and grey dots.

[3] = first-pass metabolism and intramuscular absorption of Bumetanide Dibenzylamide; assay type: in vivo
From the text: Refinement opportunities may include extended or controlled release oral capsule or tablet or use of a transdermal formulation. Intramuscular data shown below supports the development of a potential transdermal therapy.

[4] = in vivo
fear-potentiated startle = experiment: rat fear-potentiated startle (FPS) model of conditioned anxiety; assay type: in vivo, Long-Evans rats; conditions: 35 mg/kg IV
[5] = tested on: spontaneous interictal spiking; conditions: 20 mg IV furosemide; cited from earlier work
afterdischarge activity = conditions: cortical stimulation, human patient; cited from earlier work
[6] = tested on: maximal pentylenetetrazol (PTZ) seizures; conditions: pharmacology review provided to the FDA; cited from earlier work
[7] = tested on: maximal electroshock (MES) seizures; conditions: pharmacology review provided to the FDA; cited from earlier work
[8] = PO gavage, CMC-water suspension, mol-Eq to 10 mg/kg bumetanide, bicuculline-generated spikes, pretreatment vs maximum change
[9] = PO, mol-Eq to 10 mg/kg bumetanide
[10] = PO, 10 mg/kg bumetanide or mol-Eq
[11] = PO, mol-Eq to 10 mg/kg bumetanide, interspike intervals

CCCCNc1cc(C(=O)N(CC)CC)cc(S(N)(=O)=O)c1Oc1ccccc1 [bumetanide diethylamide]
Average % change in spike size (bicuculline spiking; [8]): 40%
Time to 50% recovery for spike sizes (bicuculline spiking; [9]): 59 min
Time to 50% recovery of ISI (bicuculline spiking; [9]): 59 min
Average % change in ISI (bicuculline spiking; in vivo): 65%
percentage change in urine production over time ([1]; FIG. 21, compared to bumetanide): lower percentage change in urine production over time compared to bumetanide
rate of urine production over time ([1]; FIG. 22, compared to bumetanide): lower rate of urine production over time compared to bumetanide
average rate of urine production after treatment ([1]; FIG. 23, compared to bumetanide): lower average rate of urine production compared to bumetanide

CCCC(C)C1(CC)C(=O)NC(=S)NC1=O (stereo not shown) [pentothal, sodium thiopental]
block of 4-AP bursting (4-AP bursting): block 4-AP bursting

CCCCNc1cc(C(=O)O)cc(S(N)(=O)=O)c1Oc1ccccc1 [Bumetanide, 3-(Aminosulfonyl)-5-(butylamino)-4-phenoxybenzoic acid, reference compound]
block of bicuculline spiking by comparator drugs (bicuculline spiking): block bicuculline spiking
block of bicuculline spiking by comparator drugs (bicuculline spiking; listed as bumetanide): suppress bicuculline spiking
time postinjection of traces showing profound, nearly complete blockade of epileptiform activity (bicuculline spiking; IV, 2 mg/kg bumetanide or mol-Eq): 81 min
effect on bicuculline spiking after intravenous dose (bicuculline spiking; IV, 2 mg/kg bumetanide or mol-Eq, in PEG-200): near-complete blockade of the bicuculline spiking
time postinjection of recovery to baseline pretreatment spiking (bicuculline spiking; IV, 2 mg/kg bumetanide or mol-Eq, NPT 2042 experiment ended before recovery): ~120 min
Average % change in spike size (bicuculline spiking; [8]): 23.7%
effect on bicuculline spiking after oral dose (bicuculline spiking; [10]): reduced spike height and frequency of bicuculline spiking; also recorded: transiently mediate a reduction in size and frequency of spiking
Time to 50% recovery for spike sizes (bicuculline spiking; [9]): 35 min
Time to 50% recovery of ISI (bicuculline spiking; [9]): 163 min
Average % change in ISI (bicuculline spiking; [11]): 68.7%
block of ADs and hand-twitching (ADs and hand-twitching): block ADs and hand-twitching
anticonvulsant effect in primate seizure model (epileptiform activity): block seizures
diuretic response [1, 10]: potent diuretic effect
block of 4-AP bursting (4-AP bursting): block 4-AP bursting

CCCCNc1cc(C(=O)N(Cc2ccccc2)Cc2ccccc2)cc(S(N)(=O)=O)c1Oc1ccccc1 [NPT 2042, N, N-dibenzyl 3-aminosulfonyl-5-butylamino-4-phenoxybenzamide]
Average % change in ISI (bicuculline spiking; in vivo): 26%
Average % change in spike size (bicuculline spiking; in vivo): 35.2%
Time to 50% recovery for spike sizes (bicuculline spiking; in vivo): 160 min
Time to 50% recovery of ISI (bicuculline spiking; in vivo): 126 min
time postinjection of recovery to baseline pretreatment spiking (bicuculline spiking; in vivo): > 155 min
effect on bicuculline spiking after intravenous dose (bicuculline spiking; in vivo, iv, 2 mg/kg): near-complete blockade of the bicuculline spiking
time postinjection of traces showing profound, nearly complete blockade of epileptiform activity (bicuculline spiking; in vivo, iv, 2 mg/kg): 72 min
effect on bicuculline spiking after oral dose (bicuculline spiking; in vivo, po): reduced spike height and frequency of bicuculline spiking; also recorded: transiently mediate a reduction in size and frequency of spiking
indication of diuresis (BUN, creatinine, serum chloride, urine specific gravity) [2]: no indication of diuresis
first-pass metabolism by the liver ([3]; in vivo): susceptible to high first-pass metabolism by the liver
absorption after intramuscular administration ([3]; intramuscular): can be absorbed through the microvessels of the muscle into the circulation
average rate of urine production after treatment [4]: lower average rate of urine production compared to bumetanide
percentage change in urine production over time [4]: lower percentage change in urine production over time compared to bumetanide
rate of urine production over time [4]: lower rate of urine production over time compared to bumetanide
anxiolytic effect in the FPS model (fear-potentiated startle): anxiolytic effect in the FPS model similar in magnitude to that elicited by equivalent (mg/kg) doses of bumetanide

NS(=O)(=O)c1cc(C(=O)O)c(NCc2ccco2)cc1Cl [Furosemide, furosemide]
anticonvulsant effect in primate seizure model (epileptiform activity): block seizures
diuretic potency relative to bumetanide ([1]; in vivo): about 1/10
effect on spontaneous interictal spiking [5]: Blockade of Spontaneous Interictal Spiking
afterdischarge activity after treatment (afterdischarge activity): abruptly blocked
afterdischarge threshold (afterdischarge activity): increased the afterdischarge threshold

CCCCNc1cc(C(=O)N2CCOCC2)cc(S(N)(=O)=O)c1Oc1ccccc1 [NPT 2024, Bumetanide Morpholino Amide]
Average % change in spike size (bicuculline spiking; [8]): 44%
Time to 50% recovery for spike sizes (bicuculline spiking; [9]): 110 min
Time to 50% recovery of ISI (bicuculline spiking; [9]): 180 min
Average % change in ISI (bicuculline spiking; [11]): 37.5%
interspike intervals compared with bumetanide parent (bicuculline spiking; n=4, FIG. 8): dramatic increase in interspike intervals
spikes per minute compared with bumetanide parent (bicuculline spiking; n=4, FIG. 9): dramatic decrease in spikes per minute
average spike height compared with bumetanide parent (bicuculline spiking; n=4, FIG. 10): dramatic decrease in the average spike height
average rate of urine production after treatment [4]: lower average rate of urine production compared to bumetanide
percentage change in urine production over time [4]: lower percentage change in urine production over time compared to bumetanide
rate of urine production over time [4]: lower rate of urine production over time compared to bumetanide

CC[C@@H](C(N)=O)N1CCCC1=O [Keppra, Levetiracetam]
block of bicuculline spiking by comparator drugs (bicuculline spiking): block bicuculline spiking; also recorded: suppress bicuculline spiking
block of ADs and hand-twitching (ADs and hand-twitching): does not
anticonvulsant effect in primate seizure model (epileptiform activity): clear anticonvulsant effect
anticonvulsant activity in PTZ test [6]: no anticonvulsant activity
block of 4-AP bursting (4-AP bursting): does NOT block 4-AP bursting
anticonvulsant activity in MES test [7]: no anticonvulsant activity

O=C1NC(c2ccccc2)(c2ccccc2)C(=O)N1COP(=O)(O)O [Fosphenatoin]
block of bicuculline spiking by comparator drugs (bicuculline spiking): does not
block of ADs and hand-twitching (ADs and hand-twitching): block ADs and hand-twitching
block of 4-AP bursting (4-AP bursting): block 4-AP bursting
